Source: publication PMC12957839, “Antiviral activity and mechanism of purine morpholine nucleoside analogues incorporating a sulfonamide fragment” (Journal of Advanced Research, 2025)
In brackets after ≈: the same amount, converted by molar mass.

Assays:
PMMoV CP [1] = target: T1, PMMoV CP (Pepper mild mottle virus, UniProt P69509); assay: ABPP probe capture of PMMoV CP (Western blot), concentration dependence and competitive inhibition; format: binding; settings: for capture of the 17 kDa protein from PMMoV: Western blot, identical concentration, Fig. S132; for labeling of PMMoV CP by probe / capture of PMMoV CP: Fig. 1B; for capture of PMMoV CP: same concentration of 100 µM
Excerpt: ABPP technology utilized its unique chemical probe strategy to selectively capture target proteins and was regarded as a well-established approach for discovering target proteins.

PMMoV [2] = assay: Antiviral activity assay against PMMoV, protective activity; format: in vivo, Pepper mild mottle virus (PMMoV); design: Protective activity: concentration or dose not given beside the values; settings: against PMMoV, average of three replicates, ± standard deviation; for EC50: Pepper mild mottle virus, read-out: EC50 of protective activity
Method: (§1) Virions were isolated and extracted from leaves of N. benthamiana infected with PMMoV referring to the method recorded in the literature. And the inhibiting activities of C1–C38 against PMMoV were assessed with reference to the literature as well [26, 34].

PMMoV [3] = assay: Antiviral activity assay against PMMoV, curative activity; format: in vivo, Pepper mild mottle virus (PMMoV); design: Curative activity: concentration or dose not given beside the values; settings: against PMMoV, average of three replicates, ± standard deviation; for EC50: Pepper mild mottle virus, read-out: EC50 of curative activity
Method: as §1

PMMoV [4] = assay: Antiviral activity assay against PMMoV, inactivating activity; format: in vivo, Pepper mild mottle virus (PMMoV); settings: against PMMoV, average of three replicates, ± standard deviation; for pest or weed control at 500 µg/mL / EC50: Pepper mild mottle virus; for pest or weed control at 500 µg/mL: read-out: Inactivating activity; for EC50: read-out: EC50 of inactivating activity
Method: as §1

PMMoV CP [5] = target: T1, PMMoV CP; assay: Microscale thermophoresis (MST) binding affinity with PMMoV CP
Method: The binding affinities of compounds with PMMoV CP were analyzed by MST based on the procedures delineated in the literature.

PMMoV CP and I3QHX5 = assay: BiFC interaction of PMMoV CP and PMMoV CP^Y13A with I3QHX5 before and after application of C1; format: cell-based, N. benthamiana; settings: addition of C1, 30, 36 and 42 hpi, Fig. 6A
Method: Designed primers to construct vectors of LCA and BiFC via homologous recombination. Extracted plasmids and waited for sequencing confirmation before transforming them into GV3101 (pU19). A. tumefaciens transient transformation solution (200 μM acetosyringone, 10 mM MgCl2, and 10 mM MES, pH = 5.6) was prepared to resuspend the organisms with a final OD600 of 1.0, then mixed them with equal OD600 and volume before being infiltrated into N. benthamiana of the same growth stage. […]

[6] = target: PMMoV CP (Octet, in vitro) (pepper mild mottle virus); assay: BLI; Octet, in vitro; which partner was immobilised is not stated

Row | EC50 (PMMoV [2]) [µg/mL] | EC50 (PMMoV [3]) [µg/mL] | EC50 (PMMoV [4]) [µg/mL] | Molecule | capture of the 17 kDa protein from PMMoV (PMMoV CP [1]) | labeling of PMMoV CP by probe (PMMoV CP [1]; concentrations of 10–50 µM) | labeling of PMMoV CP by probe (PMMoV CP [1]; concentrations reduced to 5–1 µM) | capture of PMMoV CP (PMMoV CP [1]) | Protective activity (PMMoV [2]) [%] | Curative activity (PMMoV [3]) [%] | pest or weed control at 500 µg/mL (PMMoV [4]; at 500 µg/mL) [%] | Kd (PMMoV CP [5]) [µM] | competitive inhibition of C2 labeling of PMMoV CP (PMMoV CP [1]; increasing concentrations of C1, Fig. 1C) | effect on interaction of PMMoV CP and PMMoV CP^Y13A with I3QHX5 (PMMoV CP and I3QHX5) | Inactivating activity (PMMoV [4]; at 500 µg/mL) [%] | Kd [6] [µM]
1 |  |  |  | I3QHX5 (Octet, in vitro) (from UniProt I3QHX5 1-485) (natural protein) |  |  |  |  |  |  |  |  |  |  |  | 0.013
2 | 475 ± 15.8 (≈ 667 µM) | 219 ± 9 (≈ 308 µM) | 141 ± 12.1 (≈ 198 µM) | CC(=O)OCC1OC(n2cnc3c(N4CCOCC4)nc(Cl)nc32)C(NS(=O)(=O)c2ccc([N+](=O)[O-])cc2)C(OC(C)=O)C1OC(C)=O (stereo not shown) [C4] |  |  |  |  | 52.6 ± 2.0 | 61.2 ± 3.7 | 64.1 ± 3.5 |  |  |  |  | 
3 | 926 ± 11.4 (≈ 1370 µM) | 100 ± 8.9 (≈ 148 µM) | 4507 ± 24.2 (≈ 6650 µM) | COc1ccc(S(=O)(=O)NC2C(OC(C)=O)C(OC(C)=O)C(COC(C)=O)OC2n2cnc3c(N4CCOCC4)nc(N)nc32)cc1 (stereo not shown) [C14] |  |  |  |  | 38.3 ± 4.4 | 53.6 ± 2.4 | 38.5 ± 2 |  |  |  |  | 
4 | 225 ± 11.9 (≈ 329 µM) | 372 ± 18.4 (≈ 545 µM) | 497.1 ± 3 (≈ 729 µM) | CC(=O)OCC1OC(n2cnc3c(N4CCOCC4)nc(N)nc32)C(NS(=O)(=O)c2cccc(Cl)c2)C(OC(C)=O)C1OC(C)=O (stereo not shown) [C11] |  |  |  |  | 58.8 ± 3.1 | 51.8 ± 1.0 | 51.8 ± 2.1 |  |  |  |  | 
5 | 53.8 ± 4.8 (≈ 73.2 µM) | 33.8 ± 4.6 (≈ 46 µM) | 53 ± 2.2 (≈ 72.1 µM) | CC(=O)OCC1OC(n2cnc3c(N4CCOCC4)nc(F)nc32)C(NS(=O)(=O)c2ccc(OC(F)(F)F)cc2)C(OC(C)=O)C1OC(C)=O (stereo not shown) [C34] |  |  |  |  | 65.6 ± 4.5 | 67.4 ± 2.0 | 72.7 ± 2 |  |  |  |  | 
6 | 99.6 ± 3.8 (≈ 149 µM) | 29.6 ± 1.1 (≈ 44.3 µM) | 50 ± 2 (≈ 74.8 µM) | CC(=O)OCC1OC(n2cnc3c(N4CCOCC4)nc(F)nc32)C(NS(=O)(=O)c2ccc(F)cc2)C(OC(C)=O)C1OC(C)=O (stereo not shown) [C31] |  |  |  |  | 56.0 ± 1.9 | 61.9 ± 3.3 | 68.5 ± 1.7 |  |  |  |  | 
7 | 262 ± 10.3 (≈ 402 µM) | 60.2 ± 3.1 (≈ 92.5 µM) | 20.4 ± 4.9 (≈ 31.4 µM) | CC(=O)OCC1OC(n2cnc3c(N4CCOCC4)ncnc32)C(NS(=O)(=O)c2ccc(F)cc2)C(OC(C)=O)C1OC(C)=O (stereo not shown) [C30] |  |  |  |  | 58.9 ± 3.8 | 67.9 ± 3.3 | 61.7 ± 4.6 |  |  |  |  | 
8 | 788 ± 12.8 (≈ 1120 µM) | 45.1 ± 4.7 (≈ 64.4 µM) | 632 ± 15.2 (≈ 902 µM) | CC(=O)OCC1OC(n2cnc3c(N4CCOCC4)ncnc32)C(NS(=O)(=O)c2ccc(C(F)(F)F)cc2)C(OC(C)=O)C1OC(C)=O (stereo not shown) [C26] |  |  |  |  | 44.5 ± 1.6 | 67.6 ± 2.5 | 45.5 ± 2.6 |  |  |  |  | 
9 | 134 ± 7.4 (≈ 203 µM) | 53 ± 2.1 (≈ 80 µM) | 43.1 ± 1.1 (≈ 65 µM) | COc1ccc(S(=O)(=O)NC2C(OC(C)=O)C(OC(C)=O)C(COC(C)=O)OC2n2cnc3c(N4CCOCC4)ncnc32)cc1 (stereo not shown) [C12] |  |  |  |  | 65.6 ± 4.7 | 63.5 ± 2.6 | 71.5 ± 5 |  |  |  |  | 
10 | 994 ± 11.2 (≈ 1570 µM) | 24.7 ± 1.3 (≈ 39 µM) | 134 ± 8.5 (≈ 212 µM) | CC(=O)OCC1OC(n2cnc3c(N4CCOCC4)ncnc32)C(NS(=O)(=O)c2ccccc2)C(OC(C)=O)C1OC(C)=O (stereo not shown) [C18] |  |  |  |  | 41.9 ± 2.9 | 63.5 ± 2.5 | 61.3 ± 2.8 |  |  |  |  | 
11 | 1040 ± 19.4 (≈ 1510 µM) | 64.6 ± 4.6 (≈ 93.3 µM) | 222 ± 4.8 (≈ 321 µM) | CC(=O)OCC1OC(n2cnc3c(N4CCOCC4)nc(Cl)nc32)C(NS(=O)(=O)c2ccc(C#N)cc2)C(OC(C)=O)C1OC(C)=O (stereo not shown) [C8] |  |  |  |  | 44.3 ± 1.8 | 69.6 ± 1.3 | 56.6 ± 4 |  |  |  |  | 
12 | 344 ± 15.8 (≈ 623 µM) | 2000 ± 21.8 (≈ 3620 µM) | 280 ± 13.9 (≈ 507 µM) | O=[N+]([O-])c1ccc(S(=O)(=O)NC2C(O)C(O)C(CO)OC2n2cnc3c(N4CCOCC4)ncnc32)cc1 (stereo not shown) [C37] |  |  |  |  | 50.6 ± 2.1 | 36.2 ± 4.6 | 57.8 ± 3.4 |  |  |  |  | 
13 | 562 ± 11.1 (≈ 1010 µM) | 283 ± 10.5 (≈ 510 µM) | 313 ± 7.1 (≈ 564 µM) | Cc1ccc(S(=O)(=O)NC2C(O)C(O)C(CO)OC2n2cnc3c(N4CCOCC4)nc(Cl)nc32)cc1 (stereo not shown) [C36] |  |  |  |  | 52.2 ± 0.8 | 57.3 ± 1.1 | 50.6 ± 3.6 |  |  |  |  | 
14 | 664 ± 12.4 (≈ 933 µM) | 48.5 ± 3.1 (≈ 68.2 µM) | 171 ± 9.6 (≈ 241 µM) | CC(=O)OCC1OC(n2cnc3c(N4CCOCC4)ncnc32)C(NS(=O)(=O)c2cccc(Br)c2)C(OC(C)=O)C1OC(C)=O (stereo not shown) [C16] |  |  |  |  | 45.3 ± 2.5 | 58.9 ± 4.2 | 55.9 ± 1.5 |  |  |  |  | 

Row | Molecule | EC50 (PMMoV [2]) [µg/mL] | EC50 (PMMoV [3]) [µg/mL] | EC50 (PMMoV [4]) [µg/mL] | capture of the 17 kDa protein from PMMoV (PMMoV CP [1]) | labeling of PMMoV CP by probe (PMMoV CP [1]; concentrations of 10–50 µM) | labeling of PMMoV CP by probe (PMMoV CP [1]; concentrations reduced to 5–1 µM) | capture of PMMoV CP (PMMoV CP [1]) | Protective activity (PMMoV [2]) [%] | Curative activity (PMMoV [3]) [%] | pest or weed control at 500 µg/mL (PMMoV [4]; at 500 µg/mL) [%] | Kd (PMMoV CP [5]) [µM] | competitive inhibition of C2 labeling of PMMoV CP (PMMoV CP [1]; increasing concentrations of C1, Fig. 1C) | effect on interaction of PMMoV CP and PMMoV CP^Y13A with I3QHX5 (PMMoV CP and I3QHX5) | Inactivating activity (PMMoV [4]; at 500 µg/mL) [%] | Kd [6] [µM]
15 | C#CCN1CCN(c2ncnc3c2ncn3C2OC(COC(C)=O)C(OC(C)=O)C(OC(C)=O)C2NS(=O)(=O)c2ccc([N+](=O)[O-])cc2)CC1 (stereo not shown) [C2] | 64.5 ± 4.5 (≈ 90.2 µM) | 66.6 ± 4.5 (≈ 93.2 µM) | 40.7 ± 2.3 (≈ 56.9 µM) | capable of capturing the protein with a molecular weight of 17 kDa | successfully labeled protein | failed to do so | could capture PMMoV CP | 65.9 ± 3.0 | 67.3 ± 4.3 | 67.4 ± 3.9 |  |  |  |  | 
16 | CC(=O)OCC1OC(n2cnc3c(N4CCOCC4)ncnc32)C(NS(=O)(=O)c2ccc([N+](=O)[O-])cc2)C(OC(C)=O)C1OC(C)=O (stereo not shown) [C1] | 86.9 ± 8.8 (≈ 128 µM) | 17 ± 3.9 (≈ 25.1 µM) | 37 ± 4.4 (≈ 54.6 µM) | neither C1 nor DMSO exhibited such a capacity |  |  | could not | 64.3 ± 2.8 | 73.7 ± 5.2 | 76.4 | 1.5 | competitively inhibited the interaction of C2 with PMMoV CP | affected the interaction | 76.4 ± 2.6 | 
17 | CC(=O)OCC1OC(n2cnc3c(N4CCOCC4)nc(Cl)nc32)C(NS(=O)(=O)c2ccc(C)cc2)C(OC(C)=O)C1OC(C)=O (stereo not shown) [C25] | 345 ± 11.3 (≈ 507 µM) | 167 ± 5.2 (≈ 245 µM) | 573 ± 10.9 (≈ 841 µM) |  |  |  |  | 52.3 ± 1.1 | 59.0 ± 3.5 | 46.9 ± 1.8 | 264 ± 25.1 |  |  |  | 
18 | CC(=O)OCC1OC(n2cnc3c(N4CCOCC4)ncnc32)C(NS(=O)(=O)c2ccc(C)cc2)C(OC(C)=O)C1OC(C)=O (stereo not shown) [C24] | 919 ± 10.2 (≈ 1420 µM) | 30.7 ± 1.2 (≈ 47.5 µM) | 145 ± 4.7 (≈ 224 µM) |  |  |  |  | 40.8 ± 3.5 | 72.5 ± 2.2 | 65.1 ± 4.2 | 109 |  |  |  | 
